System: blastopore upper lip of early gastrula of a Xenopus
Assay: Tissue differentiation of blastopore upper lip treated with retinoic acid for three hours, light microscopy
Settings: treated 3 hours, cultured 10 days

Structure (SMILES): CC1=C(/C=C/C(C)=C/C=C/C(C)=C/C(=O)O)C(C)(C)CCC1 [Retinoic acid, retinoic acid]
- Atypical epidermis differentiated, specimens (%) (10^−3 M, 12 specimens): 0 (0)
- Cartilage differentiated, specimens (%) (10^−3 M, 12 specimens): 0 (0)
- Cement gland differentiated, specimens (%) (10^−3 M, 12 specimens): 0 (0)
- Coelomic epithelium differentiated, specimens (%) (10^−3 M, 12 specimens): 6 (50)
- Ear vesicle differentiated, specimens (%) (10^−3 M, 12 specimens): 0 (0)
- Epidermis differentiated, specimens (%) (10^−3 M, 12 specimens): 10 (83)
- Eye or its fragments differentiated, specimens (%) (10^−3 M, 12 specimens): 0 (0)
- Gastric gland differentiated, specimens (%) (10^−3 M, 12 specimens): 0 (0)
- Hemocyte differentiated, specimens (%) (10^−3 M, 12 specimens): 0 (0)
- Intestinal epithelium differentiated, specimens (%) (10^−3 M, 12 specimens): 12 (100)
- Mesenchyme differentiated, specimens (%) (10^−3 M, 12 specimens): 12 (100)
- Muscle differentiated, specimens (%) (10^−3 M, 12 specimens): 0 (0)
- Neural tissue differentiated, specimens (%) (10^−3 M, 12 specimens): 0 (0)
- Notochord differentiated, specimens (%) (10^−3 M, 12 specimens): 11 (92)
- Pancreas differentiated, specimens (%) (10^−3 M, 12 specimens): 11 (92)
- Pharyngeal epithelium differentiated, specimens (%) (10^−3 M, 12 specimens): 10 (83)
- Pronephros differentiated, specimens (%) (10^−3 M, 12 specimens): 0 (0)
- Yolk-rich cell differentiated, specimens (%) (10^−3 M, 12 specimens): 11 (92)
- Atypical epidermis differentiated, specimens (%) (10^−4 M, 35 specimens): 0 (0)
- Cartilage differentiated, specimens (%) (10^−4 M, 35 specimens): 0 (0)
- Cement gland differentiated, specimens (%) (10^−4 M, 35 specimens): 0 (0)
- Coelomic epithelium differentiated, specimens (%) (10^−4 M, 35 specimens): 5 (14)
- Ear vesicle differentiated, specimens (%) (10^−4 M, 35 specimens): 0 (0)
- Epidermis differentiated, specimens (%) (10^−4 M, 35 specimens): 8 (23)
- Eye or its fragments differentiated, specimens (%) (10^−4 M, 35 specimens): 0 (0)
- Gastric gland differentiated, specimens (%) (10^−4 M, 35 specimens): 0 (0)
- Hemocyte differentiated, specimens (%) (10^−4 M, 35 specimens): 0 (0)
- Intestinal epithelium differentiated, specimens (%) (10^−4 M, 35 specimens): 34 (97)
- Mesenchyme differentiated, specimens (%) (10^−4 M, 35 specimens): 32 (91)
- Muscle differentiated, specimens (%) (10^−4 M, 35 specimens): 7 (20)
- Neural tissue differentiated, specimens (%) (10^−4 M, 35 specimens): 0 (0)
- Notochord differentiated, specimens (%) (10^−4 M, 35 specimens): 33 (94)
- Pancreas differentiated, specimens (%) (10^−4 M, 35 specimens): 25 (71)
- Pharyngeal epithelium differentiated, specimens (%) (10^−4 M, 35 specimens): 21 (60)
- Pronephros differentiated, specimens (%) (10^−4 M, 35 specimens): 0 (0)
- Yolk-rich cell differentiated, specimens (%) (10^−4 M, 35 specimens): 29 (83)
- Atypical epidermis differentiated, specimens (%) (10^−5 M, 35 specimens): 0 (0)
- Cartilage differentiated, specimens (%) (10^−5 M, 35 specimens): 3 (9)
- Cement gland differentiated, specimens (%) (10^−5 M, 35 specimens): 0 (0)
- Coelomic epithelium differentiated, specimens (%) (10^−5 M, 35 specimens): 5 (14)
- Ear vesicle differentiated, specimens (%) (10^−5 M, 35 specimens): 0 (0)
- Epidermis differentiated, specimens (%) (10^−5 M, 35 specimens): 13 (37)
- Eye or its fragments differentiated, specimens (%) (10^−5 M, 35 specimens): 0 (0)
- Gastric gland differentiated, specimens (%) (10^−5 M, 35 specimens): 9 (26)
- Hemocyte differentiated, specimens (%) (10^−5 M, 35 specimens): 0 (0)
- Intestinal epithelium differentiated, specimens (%) (10^−5 M, 35 specimens): 33 (94)
- Mesenchyme differentiated, specimens (%) (10^−5 M, 35 specimens): 20 (57)
- Muscle differentiated, specimens (%) (10^−5 M, 35 specimens): 4 (11)
- Neural tissue differentiated, specimens (%) (10^−5 M, 35 specimens): 1 (3)
- Notochord differentiated, specimens (%) (10^−5 M, 35 specimens): 25 (71)
- Pancreas differentiated, specimens (%) (10^−5 M, 35 specimens): 15 (43)
- Pharyngeal epithelium differentiated, specimens (%) (10^−5 M, 35 specimens): 19 (54)
- Pronephros differentiated, specimens (%) (10^−5 M, 35 specimens): 12 (34)
- Yolk-rich cell differentiated, specimens (%) (10^−5 M, 35 specimens): 30 (86)
- Atypical epidermis differentiated, specimens (%) (10^−6 M, 35 specimens): 0 (0)
- Cartilage differentiated, specimens (%) (10^−6 M, 35 specimens): 22 (63)
- Cement gland differentiated, specimens (%) (10^−6 M, 35 specimens): 0 (0)
- Coelomic epithelium differentiated, specimens (%) (10^−6 M, 35 specimens): 12 (34)
- Ear vesicle differentiated, specimens (%) (10^−6 M, 35 specimens): 0 (0)
- Epidermis differentiated, specimens (%) (10^−6 M, 35 specimens): 34 (97)
- Eye or its fragments differentiated, specimens (%) (10^−6 M, 35 specimens): 0 (0)
- Gastric gland differentiated, specimens (%) (10^−6 M, 35 specimens): 1 (3)
- Hemocyte differentiated, specimens (%) (10^−6 M, 35 specimens): 0 (0)
- Intestinal epithelium differentiated, specimens (%) (10^−6 M, 35 specimens): 4 (11)
- Mesenchyme differentiated, specimens (%) (10^−6 M, 35 specimens): 35 (100)
- Muscle differentiated, specimens (%) (10^−6 M, 35 specimens): 20 (57)
- Neural tissue differentiated, specimens (%) (10^−6 M, 35 specimens): 15 (43)
- Notochord differentiated, specimens (%) (10^−6 M, 35 specimens): 30 (86)
- Pancreas differentiated, specimens (%) (10^−6 M, 35 specimens): 1 (3)
- Pharyngeal epithelium differentiated, specimens (%) (10^−6 M, 35 specimens): 34 (97)
- Pronephros differentiated, specimens (%) (10^−6 M, 35 specimens): 0 (0)
- Yolk-rich cell differentiated, specimens (%) (10^−6 M, 35 specimens): 31 (89)
- Atypical epidermis differentiated, specimens (%) (10^−7 M, 32 specimens): 0 (0)
- Cartilage differentiated, specimens (%) (10^−7 M, 32 specimens): 16 (50)
- Cement gland differentiated, specimens (%) (10^−7 M, 32 specimens): 0 (0)
- Coelomic epithelium differentiated, specimens (%) (10^−7 M, 32 specimens): 5 (16)
- Ear vesicle differentiated, specimens (%) (10^−7 M, 32 specimens): 0 (0)
- Epidermis differentiated, specimens (%) (10^−7 M, 32 specimens): 31 (97)
- Eye or its fragments differentiated, specimens (%) (10^−7 M, 32 specimens): 0 (0)
- Gastric gland differentiated, specimens (%) (10^−7 M, 32 specimens): 0 (0)
- Hemocyte differentiated, specimens (%) (10^−7 M, 32 specimens): 0 (0)
- Intestinal epithelium differentiated, specimens (%) (10^−7 M, 32 specimens): 1 (3)
- Mesenchyme differentiated, specimens (%) (10^−7 M, 32 specimens): 32 (100)
- Muscle differentiated, specimens (%) (10^−7 M, 32 specimens): 24 (75)
- Neural tissue differentiated, specimens (%) (10^−7 M, 32 specimens): 9 (28)
- Notochord differentiated, specimens (%) (10^−7 M, 32 specimens): 31 (97)
- Pancreas differentiated, specimens (%) (10^−7 M, 32 specimens): 0 (0)
- Pharyngeal epithelium differentiated, specimens (%) (10^−7 M, 32 specimens): 30 (94)
- Pronephros differentiated, specimens (%) (10^−7 M, 32 specimens): 0 (0)
- Yolk-rich cell differentiated, specimens (%) (10^−7 M, 32 specimens): 24 (75)
- Atypical epidermis differentiated, specimens (%) (10^−8 M, 20 specimens): 0 (0)
- Cartilage differentiated, specimens (%) (10^−8 M, 20 specimens): 5 (25)
- Cement gland differentiated, specimens (%) (10^−8 M, 20 specimens): 0 (0)
- Coelomic epithelium differentiated, specimens (%) (10^−8 M, 20 specimens): 3 (15)
- Ear vesicle differentiated, specimens (%) (10^−8 M, 20 specimens): 0 (0)
- Epidermis differentiated, specimens (%) (10^−8 M, 20 specimens): 20 (100)
- Eye or its fragments differentiated, specimens (%) (10^−8 M, 20 specimens): 0 (0)
- Gastric gland differentiated, specimens (%) (10^−8 M, 20 specimens): 0 (0)
- Hemocyte differentiated, specimens (%) (10^−8 M, 20 specimens): 0 (0)
- Intestinal epithelium differentiated, specimens (%) (10^−8 M, 20 specimens): 0 (0)
- Mesenchyme differentiated, specimens (%) (10^−8 M, 20 specimens): 20 (100)
- Muscle differentiated, specimens (%) (10^−8 M, 20 specimens): 17 (85)
- Neural tissue differentiated, specimens (%) (10^−8 M, 20 specimens): 2 (10)
- Notochord differentiated, specimens (%) (10^−8 M, 20 specimens): 18 (90)
- Pancreas differentiated, specimens (%) (10^−8 M, 20 specimens): 2 (10)
- Pharyngeal epithelium differentiated, specimens (%) (10^−8 M, 20 specimens): 17 (85)
- Pronephros differentiated, specimens (%) (10^−8 M, 20 specimens): 0 (0)
- Yolk-rich cell differentiated, specimens (%) (10^−8 M, 20 specimens): 16 (80)

Source: patent US20030186434A1, “Method of forming vertebrate pancreas in vitro” (priority 2002, published 2003)
